Results on eleven compounds are retold here after ChEMBL document CHEMBL1148592, “Synthesis and antiviral evaluation of cyclic and acyclic 2-methyl-3-hydroxy-4-pyridinone nucleoside derivatives” (J Med Chem, 2006).

In data set [1] the test system is Human immunodeficiency virus 1. Nature of the data set: Antiviral activity against HIV1 IIIB in CEM cells. It is filed as functional, organism-based. To be noted: Human immunodeficiency virus 1, 3B, CCRF-CEM.
Data set [2] concerns Human alphaherpesvirus 1. Nature of the data set: Antiviral activity against HSV1 KOS in HEL cells. The format is functional, organism-based. To be noted: Human alphaherpesvirus 1, KOS.
A further data set has as its system Human alphaherpesvirus 2. Nature of the data set: Antiviral activity against HSV2 G in HEL cells. To be noted: Human alphaherpesvirus 2, G. It is filed as functional, organism-based.
Data set [3] can be described thus: Minimum toxic concentration in HEL cells. It is filed as toxicity, cell-based. To be noted: human, read-out: MTC.
Data set [4] concerns Human alphaherpesvirus 1. Nature of the data set: Antiviral activity against HSV1 TK- in HEL cells. It is filed as functional, organism-based. To be noted: Human alphaherpesvirus 1, TK-.
Data set [5] relates to Human immunodeficiency virus 2. Nature of the data set: Antiviral activity against HIV2 ROD in CEM cells. It is filed as functional, organism-based. To be noted: Human immunodeficiency virus 2, ROD, CCRF-CEM.
Another data set concerns CCRF-CEM. Nature of the data set: Cytotoxicity in CEM cells. The format is functional. To be noted: Homo sapiens.

In general, EC50 refers to the concentration needed to bring the measured effect to its halfway point. High values mean lower potency in that assay, low ones higher potency in that assay. The term CC50 denotes the concentration giving 50% cytotoxicity. A low value points to harm at low concentration. Consider `Cc1c(O)c(=O)ccn1[C@H]1CC[C@@H](CO)O1`, for which the EC50 in data set [1] was above 50 µM; in the data set with Human alphaherpesvirus 1 [2] it was 40 µM; with Human alphaherpesvirus 2 it was above 900 µM; in the data set with Human alphaherpesvirus 1 [4] it was 500 µM; in data set [5], above 50 µM. Also, the MCC in data set [3] is above 900 µM. The compound further registered a CC50 in the data set on CCRF-CEM above 50 µM.
As to `Cc1c(O)c(=O)ccn1[C@H]1CC[C@H](CO)O1`, the EC50 in data set [1] is above 90 µM; in the data set with Human alphaherpesvirus 1 [2], 177 µM; in the data set with Human alphaherpesvirus 2 it was above 177 µM; with Human alphaherpesvirus 1 [4] it was above 177 µM; in data set [5] it was above 90 µM. For the same compound, the MCC in data set [3] is above 900 µM. In the data set with CCRF-CEM, this compound displayed a half-maximal cytotoxic concentration (CC50) of 84 µM.
As to `Cc1c(O)c(=O)ccn1CCOCP(=O)(O)O`, the EC50 in data set [1] is above 50 µM; in the data set with Human alphaherpesvirus 1 [2] it was above 200 µM; in the data set with Human alphaherpesvirus 2 it was above 200 µM; in data set [5], above 50 µM. Besides, in data set [3], the MCC was above 200 µM. For the same compound, the CC50 in the data set with CCRF-CEM is above 50 µM.
With `Cc1c(O)c(=O)ccn1[C@@H]1CC[C@@H](CO)O1`, the 50% effective concentration (EC50) in data set [1] was above 50 µM; with Human alphaherpesvirus 1 [2] it was 177 µM; with Human alphaherpesvirus 2, above 177 µM; in the data set on Human alphaherpesvirus 1 [4] it was above 177 µM; in data set [5] it was above 50 µM. Besides, the MCC in data set [3] was above 900 µM. In the data set on CCRF-CEM, this compound registered a CC50 of 101 µM.
`Cc1c(OCc2ccccc2)c(=O)ccn1[C@H]1CC[C@@H](CO)O1`: the EC50 in data set [1] is above 150 µM; in the data set on Human alphaherpesvirus 1 [2] it was above 200 µM; in the data set on Human alphaherpesvirus 2 it was above 200 µM; with Human alphaherpesvirus 1 [4] it was above 200 µM; in data set [5], above 150 µM. In data set [3], the MCC was above 900 µM. In addition, the CC50 with CCRF-CEM was above 150 µM.
For the compound `Cc1c(O)c(=O)ccn1[C@@H]1CS[C@@H](CO)O1` (racemic), the EC50 in data set [1] is above 80 µM; in the data set with Human alphaherpesvirus 1 [2] it was 40 µM; in the data set with Human alphaherpesvirus 2 it was 90 µM; with Human alphaherpesvirus 1 [4], 95 µM; in data set [5], above 80 µM. In addition, in data set [3], the MCC is above 400 µM. In the data set with CCRF-CEM, the CC50 is 188 µM.
In the case of `Cc1c(O)c(=O)ccn1[C@H]1CS[C@@H](CO)O1` (racemic), the EC50 in data set [1] was above 80 µM; in the data set on Human alphaherpesvirus 1 [2] it was 32 µM; with Human alphaherpesvirus 2 it was 81 µM; with Human alphaherpesvirus 1 [4], 80 µM; in data set [5] it was above 80 µM. Also, the MCC in data set [3] was above 400 µM. In the data set with CCRF-CEM, this compound had a CC50 of 188 µM.
Take `Nc1nc2c(ncn2COCCO)c(=O)[nH]1` [ACYCLOVIR]: the concentration for a half-maximal effect (EC50) in data set [1] is above 50 µM; in the data set on Human alphaherpesvirus 1 [2] it was 1.12 µM; in the data set on Human alphaherpesvirus 2, 1.76 µM; in the data set with Human alphaherpesvirus 1 [4], 86.6 µM; in data set [5], above 50 µM. In addition, the MCC in data set [3] is above 1700 µM.
For the compound `Nc1ccn(C[C@@H](CO)OCP(=O)(O)O)c(=O)n1` [CIDOFOVIR], the EC50 in data set [1] was above 10 µM; in the data set with Human alphaherpesvirus 1 [2], 0.57 µM; in data set [5], above 10 µM. Besides, the MCC in data set [3] is above 350 µM.
With `Nc1nc2c(ncn2COC(CO)CO)c(=O)[nH]1` [GANCICLOVIR], the figures for the EC50 (in data set [1]; with Human alphaherpesvirus 2; in data set [5]) were above 50 µM, 0.06 µM and above 50 µM, respectively.
For `Cc1cn([C@H]2C[C@H](N=[N+]=[N-])[C@@H](CO)O2)c(=O)[nH]c1=O` [ZIDOVUDINE], the EC50 in data set [1] and in data set [5] was 0.0055 µM throughout. In the data set on CCRF-CEM, this compound came in with a CC50 above 100 µM.
